# Measurements reported in patent US20260108483A1, “METHODS AND COMPOSITIONS FOR PREVENTING THE PROGRESSION OF DIABETIC RETINOPATHY AND RELATED CONDITIONS” (Opus Genetics, Inc., priority 2023, published 2026).
# Legend:
# Type in all cases: in vivo, human
# [1] = Clinical study safety: glomerular filtration rate; settings: combined placebo + Compound 1 patients; for Mean Glomerular Filtration Rate: Baseline 92.53
# From the text: (§1) The study was configured as a placebo-controlled, double-masked, randomized, Phase 2 study in approximately 100 subjects with moderately severe to severe NPDR (diabetic retinopathy severity score [DRSS] Level 47 or 53, see FIG. 1) or mild PDR (DRSS Level 61), evaluating safety and efficacy following administration of Compound 1 twice daily for 24 weeks. The study was configured for a 1:1 randomization (placebo: Compound 1). Randomization was stratified by level of disease severity (NPDR or PDR). Subjects with mild PDR were capped at 20% for each arm. Efficacy evaluations at 12 and/or 24 weeks included DRSS, center-involved diabetic macular edema (DME), moderate PDR or PDR-related adverse events (AEs), best-corrected visual acuity (BCVA), and central subfield thickness (CST). Further experimental procedures and results are described below.
# (§2) At the Qualification/Baseline (Visit 2, Day 1): • The subject was randomized into the study. • Study medication was dispensed in accordance with the subjects randomized treatment arm. • Blood samples were drawn pre-dose for baseline levels and on Visit 9 (Week 24) for exploratory biomarker processing (i.e., cytokine and Ref-1 levels) to evaluate pharmacodynamic properties. • Subjects were instructed to administer their study medication (Compound 1 or placebo) each day, with 3 tablets every morning and 2 tablets every evening. Study medication was to be taken at approximately the same time each day and may be taken with or without food.
# (§3) At the Second Treatment Visit (Visit 6, Week 12±2 Days), subjects were to return to the site for the following series of safety and efficacy assessments: drug accountability, concomitant medications, urine pregnancy test (only for women of childbearing potential), HR/BP/vital signs, BCVA (ETDRS), DRSS, CST (SD-OCT), blood draw for PK, blood chemistry, blood hematology, biomicroscopy, ophthalmoscopy, IOP, eGFR, and AEs. Following the completion of the assessments, used medication kits were collected for accountability (by counting the number of unused tablets), and new study medication kits dispensed.
# (§4) At the Third Treatment Visit (Visit 9, Week 24±2 Days), subjects were to return to the site for the following series of safety and efficacy assessments: drug accountability, concomitant medications, urine pregnancy test (only for women of childbearing potential), physical examination, HR/BP/vital signs, BCVA (ETDRS), DRSS, CST (SD-OCT), blood chemistry, blood hematology, biomicroscopy, ophthalmoscopy, IOP, eGFR, AEs, and blood draw for exploratory biomarkers (ELISA, cytokine panel, comprehensive metabolic panel). Visit 9 (Week 24) was the end of the treatment period. Study medication was returned for accountability (by counting the number of unused tablets), and no further study medication dispensed.
# (§5) Safety endpoints include: • Incidence and severity of systemic and ocular AEs, • Change from baseline in body system assessments, • Change from baseline in vital sign measurements, • Change from baseline in clinical laboratory assay results (blood chemistry, hematology), • Change from baseline in intraocular pressure (IOP), • Change from baseline in slit-lamp examination parameters, • Change from baseline in dilated funduscopic examination parameters, • Percent of subjects with a decrease of ≥10 letters in BCVA compared to baseline at Week 12 and Week 24, • Percent of subjects progressing to center-involved DME (eligible for rescue treatment at Week 12 and Week 24), • Percent of subjects with a worsening in DRSS of ≥2 steps in the study eye at Week 12 and Week 24, • Percent of subjects developing anterior segment neovascularization at Week 12 and Week 24, • Percent of subjects rescued (intravitreal anti-VEGF injection, laser PRP, focal/grid laser treatment, or surgery [vitrectomy]) at the discretion of the Investigator at Week 12 and Week 24, and • Change from baseline in estimated glomerular filtration rate (eGFR) at Week 12 and Week 24. […]
# [2] = Clinical study safety: diastolic blood pressure; settings: combined placebo + Compound 1 patients; for Mean Diastolic Blood Pressure: Baseline 80.3
# From the text: as §1, §2, §3, §4, §5
# [3] = Clinical study safety: systolic blood pressure; settings: combined placebo + Compound 1 patients; for Mean Systolic Blood Pressure: Baseline 136.9
# From the text: as §1, §2, §3, §4, §5
# [4] = Clinical study safety: aspartate aminotransferase in subjects' blood; settings: combined placebo + Compound 1 patients; for Mean Concentration of Aspartate Aminotransferase in Subjects' Blood: Baseline 19.7
# From the text: as §1, §2, §3, §4, §5
# [5] = Clinical study safety: heart rate; settings: combined placebo + Compound 1 patients; for Mean Heart Rate: Baseline 76.7
# From the text: as §1, §2, §3, §4, §5
structure (smiles),measurement,setting,value
"CCCCCCCCC/C(=C\C1=C(C)C(=O)C(OC)=C(OC)C1=O)C(=O)O [Compound 1, (E)-2-((4,5-dimethoxy-2-methyl-3,6-dioxocyclohexa-1,4-dien-1-yl)methylene)undecanoic acid]",Mean Glomerular Filtration Rate,"[1]; Week 12, 52 subjects",83.85 mL/min/1.73 m^2
same,Mean Glomerular Filtration Rate,"[1]; Week 24, 24 subjects",77.7 mL/min/1.73 m^2
same,change in mean glomerular filtrate rate relative to Baseline,"[1]; week 12, 47 subjects",−2.24 mL/min/1.73 m^2
same,reduction in mean glomerular filtrate rate relative to Baseline,"[1]; week 12, 47 subjects",2%
same,change in mean glomerular filtrate rate relative to Baseline,"[1]; week 24, 21 subjects",−9.84 mL/min/1.73 m^2
same,reduction in mean glomerular filtrate rate relative to Baseline,"[1]; week 24, 21 subjects",11%
same,Mean Diastolic Blood Pressure,"[2]; Week 12, 62 subjects",77.1 mmHg
same,Mean Diastolic Blood Pressure,"[2]; Week 24, 27 subjects",80.4 mmHg
same,change in mean diastolic blood pressure relative to Baseline,"[2]; week 12, 62 subjects",−2.8 mmHg
same,reduction in mean diastolic blood pressure relative to Baseline,"[2]; week 12, 62 subjects",3%
same,change in mean diastolic blood pressure relative to Baseline,"[2]; week 24, 27 subjects",+1 mmHg
same,increase in mean diastolic blood pressure relative to Baseline,"[2]; week 24, 27 subjects",1%
same,Mean Systolic Blood Pressure,"[3]; Week 12, 62 subjects",132 mmHg
same,Mean Systolic Blood Pressure,"[3]; Week 24, 27 subjects",139.7 mmHg
same,change in mean systolic blood pressure relative to Baseline,"[3]; week 12, 62 subjects",−4.7 mmHg
same,reduction in mean systolic blood pressure relative to Baseline,"[3]; week 12, 62 subjects",3%
same,change in mean systolic blood pressure relative to Baseline,"[3]; week 24, 27 subjects",−0.7 mmHg
same,reduction in mean systolic blood pressure relative to Baseline,"[3]; week 24, 27 subjects",1%
same,Mean Concentration of Aspartate Aminotransferase in Subjects' Blood,"[4]; Week 12, 53 subjects",19.2 IU/L
same,Mean Concentration of Aspartate Aminotransferase in Subjects' Blood,"[4]; Week 24, 24 subjects",17.5 IU/L
same,change in mean concentration of aspartate aminotransferase relative to Baseline,"[4]; week 12, 50 subjects",−0.5 IU/L
same,reduction in mean concentration of aspartate aminotransferase relative to Baseline,"[4]; week 12, 50 subjects",3%
same,change in mean concentration of aspartate aminotransferase relative to Baseline,"[4]; week 24, 22 subjects",−1.8 IU/L
same,reduction in mean concentration of aspartate aminotransferase relative to Baseline,"[4]; week 24, 22 subjects",9%
same,Mean Heart Rate,"[5]; Week 12, 62 subjects",76.3 beats/min
same,Mean Heart Rate,"[5]; Week 24, 27 subjects",80.7 beats/min
same,change in mean heart rate relative to Baseline,"[5]; week 12, 62 subjects",+0.9 beats/min
same,increase in mean heart rate relative to Baseline,"[5]; week 12, 62 subjects",1%
same,change in mean heart rate relative to Baseline,"[5]; week 24, 27 subjects",+4.3 beats/min
same,increase in mean heart rate relative to Baseline,"[5]; week 24, 27 subjects",6%
